Data: patent US10555961B2 (INDIANA UNIVERSITY RESEARCH AND TECHNOLOGY CORPORATION, priority 2015, dated 2020)

How the values were obtained:
Type in all cases: cell-based
[1] = system: Bacillus subtilis; test: Bacterial assay, kill zones and growth inhibition zones; details: FIG. 2
Method: (§1) Bacterial assays were performed using native gentamicin and the C-1, C-1a, C-2, and C-2a congeners of gentamicin.

[2] = system: Klebsiella pneumonia; test: as above; details: FIG. 2
Method: as §1

[3] = system: variant of Klebsiella pneumonia that exhibits multi-drug resistance; details: multi-drug resistant Klebsiella pneumonia, FIG. 2
Method: as §1

[4] = system: UGAC stop codon; test: Stop codon readthrough (FIG. 7); details: 200 μg mL^−1 for 24 hours, relative to controls
Method: Native gentamicin and various congeners prepared as in Example 1 were tested to determine their effect on stop codon readthrough.
In order to determine the optimal concentrations of the aminoglycosides (tobramycin, amikacin, and gentamicin) to use in the mammalian translation system, increasing amounts of each aminoglycoside were added to a rabbit reticulocyte translation system while expressing the QX(N) (UGAC) construct. The effect of aminoglycosides on total protein synthesis was monitored by comparing the total amount of proteins synthesized in the presence and absence of various aminoglycosides. A range of aminoglycoside concentrations was then determined that allowed a maximal amount of termination suppression without inhibiting total protein synthesis more than two- to threefold. In vitro translation reactions were carried out using the TNT coupled transcription/translation system (Promega, Madison, Wis.). […] The gel was dried and subjected to Phosphorlmager analysis in order to quantitate the amount of truncated and full-length protein species. The percentage of readthrough was then calculated as the amount of full-length protein/(truncated+full-length species)×100%.

Substance | anti-bacterial activity (kill zones and growth inhibition zones) [1] | anti-bacterial activity (kill zones and growth inhibition zones) [2] | anti-bacterial activity (kill zones and growth inhibition zones) [3] | readthrough of the stop codon UGAC [4]
C-1 gentamicin | demonstrated anti-bacterial activity | demonstrated anti-bacterial activity | demonstrated anti-bacterial activity | greater readthrough relative to controls
C-1a gentamicin | demonstrated anti-bacterial activity | demonstrated anti-bacterial activity | demonstrated anti-bacterial activity | 
C-2 gentamicin | demonstrated anti-bacterial activity | demonstrated anti-bacterial activity | demonstrated anti-bacterial activity | greater readthrough relative to controls
C-2a gentamicin | demonstrated anti-bacterial activity | demonstrated anti-bacterial activity | demonstrated anti-bacterial activity | 
